Common to all, as to assay type: cell-based
Experiment [1] concerns sonic hedgehog pathway. In words: Hedgehog pathway Gli-luciferase reporter assay, TM3 cells. The conditions noted are these: TM3 mouse Leydig cells. Put shortly:
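Reporter cells stably selected after gli-luciferase plasmid transfection; test article dosed over 11 points (1:3). Read as luminescence after 24 h treatment in 0.5% serum; activity >20% AMAX versus plate controls deemed active.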

The test system of experiment [2] is sonic hedgehog pathway. In words: Human hedgehog reporter assay HEPM-GliLuc (HGL). The note with it: HepM human embryonic palatal mesenchymal cells, Gli-luciferase reporter. The text has this: (§1) Mouse (TM3: mouse Leydig cells; S12: mouse embryonic mesenchymal cells) and human (Daoy: human medulloblastoma cell; HepM: human embryonic palatal mesenchymal cell) cell lines are used to screen small molecules for their ability to modulate the activity of the sonic hedgehog pathway (Table 1, Table 2, and Table 3). Stable hedgehog pathway reporter cell lines are established by specific antibiotic selection following transfection of a reporter plasmid containing a luciferase gene located directly downstream from the gli promoter. Consequently, any observable changes in cellular luciferase activity may be attributed to changes in sonic hedgehog pathway activity in mouse and human cells, respectively, since gli is the major by-product of this pathway. To calculate activity, we generate an eleven point dose curve for each compound using 1:3 dilutions in 96 well assay plates. Each plate tested also contains low and high control to establish maximal pathway activation so to establish/compare a percentage activation of each tested compound (AMAX) on respective plates. Also we calculate EC50 values, or a concentration where the pathway will be exactly 50% activated, for each tested compound to determine potency. In these cell lines, compounds that register >20% AMAX values are considered active.
(§2) Stable hedgehog pathway reporter cell lines are established following specific antibiotic selection following transfection of a reporter plasmid In short, typically cells are plated in MicroTiter-plates at 10,000-20,000 cells per well, in growth media (containing 10%-20% FBS). After 48-72 hrs (HGL and DGL respectively) the media in the assay plates is switched to low-serum containing media (0.5% FBS). At that time compounds are added (at 1-5 μM) to the assay plates, in the presence or absence of hedgehog protein (octyl-modified version; 1-5 ng/ml). After another 24 hrs of incubation, the media from the assay plates is discarded and replaced with luciferase assay-mix. Subsequently, plates are incubated at RT for ˜15-30 mins and then read in a luminometer. [note: addition of the Hedgehog protein, although not critical, will sensitize the assay allowing the identification of weak actives].
In general terms: In a reporter assay the amount or activity of a reporter protein is the signal.

Experiment [3] relates to sonic hedgehog pathway. In words: Human hedgehog reporter assay Daoy-GliLuc (DGL). The note with it: Daoy human medulloblastoma cells, Gli-luciferase reporter. Put shortly: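 Stable Gli-promoter luciferase reporter lines (human HepM, Daoy; mouse S12) plated at 10,000–20,000 cells/well, switched to 0.5% FBS after 48–72 h, then given compound (1–5 μM; 11-point 1:3 dose curves) with or without octyl-modified hedgehog protein (1–5 ng/ml) for 24 h. Luminescence read; AMAX vs plate controls and EC50 derived.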

Experiment [4] has as its system sonic hedgehog pathway. In words: Hedgehog pathway Gli-luciferase reporter assay, S12 cells. The note with it: S12 mouse embryonic mesenchymal cells, read-out: Mouse S12 Avg. EC50.
Text: as §1, §2

Setting [5] is: read-out: Human Daoy (Gli-Luc) Avg. EC50.

Drawing on US20080182859A1 (Curis, Inc., priority 2006, published 2008), this text covers EC50 for 17 compounds.

The term EC50 denotes the concentration needed to bring the measured effect to its halfway point.

Structures can show the parent of a compound that is named as a salt.

On to `CCOc1ccc(-c2cncnc2)cc1CN(C(=O)c1sc2ccccc2c1Cl)[C@H]1CC[C@@H](NC)CC1` [Compound 326, 3-Chloro-benzo[b]thiophene-2-carboxylic acid (2-ethoxy-5-pyrimidin-5-yl-benzyl)-(4-methylamino-cyclohexyl)-amide dihydrochloride], for which the EC50 was 50 to 250 nM in the experiment with sonic hedgehog pathway [1], 50 to 250 nM in the experiment on sonic hedgehog pathway [2] and under 50 nM with sonic hedgehog pathway [3] (read-out: Daoy Avg. EC50).

Consider `CCOc1ccc(-c2cccc(C#N)c2)cc1CN(C(=O)c1sc2ccccc2c1Cl)[C@H]1CC[C@@H](NC)CC1` [Compound 328, 3-Chloro-benzo[b]thiophene-2-carboxylic acid (3′-cyano-4-ethoxy-biphenyl-3-ylmethyl)-(4-methylamino-cyclohexyl)-amide hydrochloride], for which the figures for the EC50 in the experiment on sonic hedgehog pathway [1], in the experiment on sonic hedgehog pathway [2] and in the experiment with sonic hedgehog pathway [3] (read-out: Daoy Avg. EC50) were under 50 nM, 50 to 250 nM and under 50 nM, respectively.

`CN[C@H]1CC[C@@H](N(Cc2cc(-c3ccc(CCl)cc3)ccc2OC)C(=O)c2sc3ccccc3c2Cl)CC1` [Compound 340, 3-Chloro-benzo[b]thiophene-2-carboxylic acid (4′-chloromethyl-4-methoxy-biphenyl-3-ylmethyl)-(4-methylamino-cyclohexyl)-amide hydrochloride]: the EC50 in the experiment with sonic hedgehog pathway [1], in the experiment on sonic hedgehog pathway [2] and in the experiment on sonic hedgehog pathway [3] (read-out: Daoy Avg. EC50) was under 50 nM throughout.

`CN[C@H]1CC[C@@H](N(Cc2cc(-c3ccnc(C)c3)ccc2OC)C(=O)c2sc3c(F)ccc(F)c3c2Cl)CC1` [Compound 345, 3-Chloro-4,7-difluoro-benzo[b]thiophene-2-carboxylic acid [2-methoxy-5-(2-methyl-pyridin-4-yl)-benzyl]-(4-methylamino-cyclohexyl)-amide dihydrochloride]: the EC50 with sonic hedgehog pathway [1], in the experiment on sonic hedgehog pathway [2] and with sonic hedgehog pathway [3] (read-out: Daoy Avg. EC50) was under 50 nM throughout.

Turning to `CN[C@H]1CC[C@@H](N(Cc2cc(-c3ccc(N(C)C=O)cc3)ccc2OC)C(=O)c2sc3cccc(F)c3c2Cl)CC1` [Compound 347, 3-Chloro-4-fluoro-benzo[b]thiophene-2-carboxylic acid [4′-(formyl-methyl-amino)-4-methoxy-biphenyl-3-ylmethyl]-(4-methylamino-cyclohexyl)-amide trifluoroacetate], the EC50 in the experiment on sonic hedgehog pathway [1], with sonic hedgehog pathway [2] and with sonic hedgehog pathway [3] (read-out: Daoy Avg. EC50) was under 50 nM in each case.

With `CN[C@H]1CC[C@@H](N(Cc2cc(-c3ccc(C(=O)C(F)(F)F)cc3)ccc2OC)C(=O)c2sc3c(F)ccc(F)c3c2Cl)CC1` [Compound 349, 3-Chloro-4,7-difluoro-benzo[b]thiophene-2-carboxylic acid [4-methoxy-4′-(2,2,2-trifluoro-acetyl)-biphenyl-3-ylmethyl]-(4-methylamino-cyclohexyl)-amide trifluoroacetate], the EC50 with sonic hedgehog pathway [1], in the experiment on sonic hedgehog pathway [2] and with sonic hedgehog pathway [3] (read-out: Daoy Avg. EC50) was under 50 nM throughout.

For `CN[C@H]1CC[C@@H](N(Cc2cc(-c3cc(C)nc(C)c3)ccc2OC)C(=O)c2sc3c(F)ccc(F)c3c2Cl)CC1` [Compound 350, 3-Chloro-4,7-difluoro-benzo[b]thiophene-2-carboxylic acid [5-(2,6-dimethyl-pyridin-4-yl)-2-methoxy-benzyl]-(4-methylamino-cyclohexyl)-amide dihydrochloride], the EC50 was under 50 nM in the experiment with sonic hedgehog pathway [1], 50 to 250 nM in the experiment with sonic hedgehog pathway [2] and under 50 nM in the experiment with sonic hedgehog pathway [3] (read-out: Daoy Avg. EC50).

Take `CN[C@H]1CC[C@@H](N(Cc2cc(-c3cc(C)nc(C)c3)ccc2OC)C(=O)c2sc3cccc(F)c3c2Cl)CC1` [Compound 353, 3-Chloro-4-fluoro-benzo[b]thiophene-2-carboxylic acid [5-(2,6-dimethyl-pyridin-4-yl)-2-methoxy-benzyl]-(4-methylamino-cyclohexyl)-amide dihydrochloride]: the figures for the half-maximal effective concentration (EC50) in the experiment on sonic hedgehog pathway [1], in the experiment on sonic hedgehog pathway [2] and in the experiment with sonic hedgehog pathway [3] (read-out: Daoy Avg. EC50) were under 50 nM, 50 to 250 nM and 50 to 250 nM, respectively.

Regarding `CN[C@H]1CC[C@@H](N(Cc2cc(-c3ccnc(N(C)C)c3)ccc2OC)C(=O)c2sc3c(F)ccc(F)c3c2Cl)CC1` [Compound 358, 3-Chloro-4,7-difluoro-benzo[b]thiophene-2-carboxylic acid [5-(2-dimethylamino-pyridin-4-yl)-2-methoxy-benzyl]-(4-methylamino-cyclohexyl)-amide dihydrochloride], the EC50 with sonic hedgehog pathway [1], in the experiment on sonic hedgehog pathway [2] and in the experiment with sonic hedgehog pathway [3] (read-out: Daoy Avg. EC50) was under 50 nM throughout.

Consider `CN[C@H]1CC[C@@H](N(Cc2cc(-c3ccc(CS(C)(=O)=O)cc3)ccc2OC)C(=O)c2sc3c(F)ccc(F)c3c2Cl)CC1` [Compound 369, 3-Chloro-4,7-difluoro-benzo[b]thiophene-2-carboxylic acid (4′-methanesulfonylmethyl-4-methoxy-biphenyl-3-ylmethyl)-(4-methylamino-cyclohexyl)-amide hydrochloride], for which the EC50 in the experiment with sonic hedgehog pathway [4] and in the experiment with sonic hedgehog pathway [3] (setting [5]) was under 50 nM each time.

For the compound `CN[C@H]1CC[C@@H](N(Cc2cc(-c3ccc(NS(C)(=O)=O)cc3)ccc2OC)C(=O)c2sc3c(F)ccc(F)c3c2Cl)CC1` [Compound 370, 3-Chloro-4,7-difluoro-benzo[b]thiophene-2-carboxylic acid (4′-methanesulfonylamino-4-methoxy-biphenyl-3-ylmethyl)-(4-methylamino-cyclohexyl)-amide hydrochloride], the EC50 in the experiment on sonic hedgehog pathway [4] and in the experiment on sonic hedgehog pathway [3] (setting [5]) was under 50 nM each time.

As to `CNC1CCC(N(Cc2cc(-c3ccc(N)nc3C)ccc2OC)C(=O)c2sc3ccccc3c2Cl)CC1` (stereo not shown) [Compound 398, 3-Chloro-benzo[b]thiophene-2-carboxylic acid [5-(6-amino-2-methyl-pyridin-3-yl)-2-methoxy-benzyl]-(4-methylamino-cyclohexyl)-amide dihydrochloride], the values for the 50% effective concentration (EC50) in the experiment on sonic hedgehog pathway [1], in the experiment with sonic hedgehog pathway [2] and in the experiment on sonic hedgehog pathway [3] (read-out: Daoy Avg. EC50) were 1000 to 2500 nM, 1000 to 2500 nM and 250 to 1000 nM, respectively.

Take `CCOc1ccc(-c2ccc(NC)nc2)cc1CN(C(=O)c1sc2ccccc2c1Cl)[C@H]1CC[C@H](NC)CC1` [Compound 399, 3-Chloro-benzo[b]thiophene-2-carboxylic acid [2-ethoxy-5-(6-methylamino-pyridin-3-yl)-benzyl]-(4-methylamino-cyclohexyl)-amide dihydrochloride]: the half-maximal effective concentration (EC50) was 1000 to 2500 nM with sonic hedgehog pathway [1], 1000 to 2500 nM with sonic hedgehog pathway [2] and 250 to 1000 nM in the experiment with sonic hedgehog pathway [3] (read-out: Daoy Avg. EC50).

Turning to `CCOc1ccc(-c2cnc(NC)nc2)cc1CN(C(=O)c1sc2ccccc2c1Cl)[C@H]1CC[C@H](NC)CC1` [Compound 402, 3-Chloro-benzo[b]thiophene-2-carboxylic acid [2-ethoxy-5-(2-methylamino-pyrimidin-5-yl)-benzyl]-(4-methylamino-cyclohexyl)-amide dihydrochloride], the figures for the concentration for a half-maximal effect (EC50) with sonic hedgehog pathway [1], in the experiment with sonic hedgehog pathway [2] and in the experiment with sonic hedgehog pathway [3] (read-out: Daoy Avg. EC50) were 1000 to 2500 nM, 250 to 1000 nM and 50 to 250 nM, respectively.

`CN[C@H]1CC[C@H](N(Cc2cc(-c3ccc(C(C)=O)cc3)ccc2F)C(=O)c2sc3ccccc3c2Cl)CC1` [Compound 419, 3-Chloro-benzo[b]thiophene-2-carboxylic acid (4′-acetyl-4-fluoro-biphenyl-3-ylmethyl)-(4-methylamino-cyclohexyl)-amide trifluoroacetate]: the EC50 was under 50 nM in the experiment on sonic hedgehog pathway [1], 250 to 1000 nM in the experiment with sonic hedgehog pathway [2] and 50 to 250 nM in the experiment on sonic hedgehog pathway [3] (read-out: Daoy Avg. EC50).

With `CN[C@H]1CC[C@H](N(Cc2cc(-c3ccc(C(=O)C(F)(F)F)cc3)ccc2F)C(=O)c2sc3ccccc3c2Cl)CC1` [Compound 424, 3-Chloro-benzo[b]thiophene-2-carboxylic acid [4-fluoro-4′-(2,2,2-trifluoro-acetyl)-biphenyl-3-ylmethyl]-(4-methylamino-cyclohexyl)-amide trifluoroacetate], the 50% effective concentration (EC50) is under 50 nM in the experiment on sonic hedgehog pathway [1], 250 to 1000 nM with sonic hedgehog pathway [2] and under 50 nM in the experiment with sonic hedgehog pathway [3] (read-out: Daoy Avg. EC50).

With `CN[C@H]1CC[C@@H](N(Cc2cc(-c3ccccc3)ccc2OC)C(=O)c2sc3ccccc3c2Cl)CC1` [Compound R3, 3-Chloro-benzo[b]thiophene-2-carboxylic acid (4-methoxy-biphenyl-3-ylmethyl)-(4-methylamino-cyclohexyl)-amide hydrochloride], the EC50 with sonic hedgehog pathway [1] is under 50 nM; in the experiment on sonic hedgehog pathway [2] it was 50 to 250 nM; in the experiment on sonic hedgehog pathway [3] (read-out: Daoy Avg. EC50) it was 50 to 250 nM.
